{"source": "patent US20220017486A1", "about": "“DOCK1-INHIBITING COMPOUND AND USE THEREOF” (KYUSHU UNIVERSITY, NATIONAL UNIVERSITY CORPORATION, priority 2018, published 2022)", "key": {"DOCK1 (DHR-2 domain)": {"target": "T1, DOCK1 (DHR-2 domain) (Homo sapiens, UniProt Q14185)", "T1 construct": "polypeptide fragments corresponding to the DHR-2 domain of DOCK1 or DOCK2 from mice and humans; Histidine-SUMO (N); made in house; host or cells: E. coli Arctic express (DE3)", "T1 sequence (Q14185 1207-1617 limits assumed)": "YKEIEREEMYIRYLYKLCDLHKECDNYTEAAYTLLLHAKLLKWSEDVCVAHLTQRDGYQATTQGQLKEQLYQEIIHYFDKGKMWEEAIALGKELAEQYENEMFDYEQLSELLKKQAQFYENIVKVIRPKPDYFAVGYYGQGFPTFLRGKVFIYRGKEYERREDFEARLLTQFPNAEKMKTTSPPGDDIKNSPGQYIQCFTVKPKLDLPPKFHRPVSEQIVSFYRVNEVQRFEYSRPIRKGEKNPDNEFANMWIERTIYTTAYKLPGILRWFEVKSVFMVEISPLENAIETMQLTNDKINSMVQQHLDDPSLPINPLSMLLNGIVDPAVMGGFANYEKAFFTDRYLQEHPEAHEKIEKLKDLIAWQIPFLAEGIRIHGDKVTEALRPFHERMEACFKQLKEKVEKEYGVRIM", "experiment": "In vitro GEF assay: Rac activation by DOCK1 DHR-2 domain", "type": "biochemical, mice and humans", "procedure": "DOCK1 and DOCK2, i.e., DOCK-A subfamily members, both activate Rac by catalyzing the GTP-GDP exchange reaction for Rac via their DHR-2 domains. Therefore, in this Pharmacological Test, the inhibitory effect of the compounds of the present invention on Rac activation by DOCK1 or DOCK2 was assessed in an in vitro GEF assay by using polypeptide fragments corresponding to the DHR-2 domain of DOCK1 or DOCK2 from mice and humans. The in vitro GEF assay was performed using a labeled GTP (Bodipy-FL-GTP, Invitrogen), which has a property of increasing the fluorescence intensity when bound to Rac.\nThe polypeptide fragments corresponding to the DHR-2 domain of DOCK1 or DOCK2 were prepared by expression in E. coli Arctic express (DE3) cells as N-terminal. Histidine-SUMO tag-fused recombinant proteins, followed by purification by affinity column chromatography on nickel-NTA columns.\nRac was prepared by expression in E. coli BL21 (DE3) cells as an N-terminal GST tag-fused recombinant protein, followed by purification by affinity column chromatography on glutathione-Sepharose columns.\nEach of the polypeptide fragments corresponding to the DHR-2 domain of DOCK1 or DOCK2, and a predetermined concentration of each test compound (the compounds of the present invention: 33 types of compounds; and comparative compound: TBOPP) dissolved in DMSO were incubated in a reaction solution A (pH 7.0), which contained 20 mM of MES-NaOH, 150 mM of NaCl, 10 mM of MgCl2, and 20 μM of GDP for 20 minutes at room temperature while being shielded from light to thus prepare GEF pretreated products. The final concentration of DMSO was adjusted to 1 mass % in all of the test samples. For a control test, a GEF pretreated product (control) was prepared by incubation in the same manner using DMSO with no test compounds, instead of the DMSO used above in which each test compound was dissolved.\nSeparately, Rac was added to the reaction solution A (pH 7.0) to a concentration of 15 μM, and was allowed to stand on for 30 min to form a GDP-Rac complex. Bodipy-FL-GTP was added to a concentration of 3.6 μM to 100 μL of the reaction solution A that contained the thus-prepared GDP-Rac complex, and equilibrated at 30° C. for 2 minutes. After equilibration, 50 μL of the GEF pretreated product prepared as described above was added and reacted at 30° C.\nChanges in fluorescence intensity of Bodipy-FL-GTP in the reaction solutions were monitored using an EnSpire spectrofluorometer (Perkin Elmer) (excitation wavelength: 488 nm, fluorescence wavelength: 514 nm). The measured values were corrected so that the fluorescence intensity at the beginning of the reaction (0 sec) was 0. Then, an approximate curve (hyperbola) was obtained by plotting the calculated correction values on the y-axis and the time (t) on the x-axis using GraphPad Prism5 (GraphPad software), and the slope at t=0 to 10 seconds was defined as the initial velocity of the guanine nucleotide exchange reaction. The IC50 value was calculated taking the initial reaction velocity of the control, to which only a solvent (DMSO) was added, as 100%.\nBased on the obtained results, columns A and B of FIG. 1, FIG. 2, FIG. 3-1, and FIG. 3-2 show the results evaluating the inhibitory effect on Rac activation by DOCK1 (DHR-2 domain) (IC50 value), and DOCK1-selective inhibitory effect (DOCK1/DOCK2 selectivity) of each test compound. The inhibitory effect on Rac activation by DOCK1 (DHR-2 domain) (IC50 value) was determined from the reaction inhibition curve plotted using values of Rac activation by the DOCK1 DHR-2 domain in the presence of various concentrations of the test compounds, taking the values of the control as 100%. […]"}, "[1]": {"system": "mouse lung carcinoma cell line (3LL cells)", "experiment": "Cell invasion inhibition assay (Matrigel invasion chamber)", "type": "cell-based", "details": "22 hours, DMSO control as 100% invasion", "procedure": "In this Pharmacological Test, the inhibitory effect of each test compound on cell invasion response was evaluated using a mouse lung carcinoma cell line (3LL cells), a mouse pancreatic cancer cell line (PANC02 cells), and a human breast cancer cell line (MDA-MB-157 cells). Of these, the mouse lung carcinoma cell line (3LL) is a cancer cell line with mutant Ras (K-Ras (G12C)), and the human breast cancer cell line (MDA-MB-157) is a cancer cell line with mutant Rac (Rac1 (P29S)). The experiments were performed in BD BioCoat Matrigel invasion chambers (BD Biosciences).\nSpecifically, an upper chamber with a Matrigel-coated membrane insert (8 μm pores) at the bottom was equilibrated with DMEM (serum-free medium) for 120 minutes. Thereafter, 300 μL of a suspension of a cancer cell line in DMEM (serum-free) was placed in the upper chamber while 500 μL of DMEM (with 10 mass % FCS) was placed in the lower chamber. Each test compound dissolved in DMSO at a predetermined concentration was added to both the culture media in the upper and lower chambers. As a control, DMSO alone was added to both the culture media in the upper and lower chambers. In all of the experiments, the final DMSO concentration in the culture media was adjusted to 0.2 mass %.\nThe resulting products were cultured under 5% CO2 at 37° C. for 22 hours (3LL and PANC02 cells) or 48 hours (MDA-MB-157 cells). Then, the upper chamber was removed, and the culture medium was removed. Thereafter, non-invading cells remaining in the upper chamber were removed using a cotton swab, and the cells remaining outside the bottom of the upper chamber (cells that had invaded into the Matrigel, and passed through the membrane insert) were stained with Diff-Quick (Sysmex). After staining, the membrane inserts with Matrigel were cut out using a scalpel to prepare slides, and the number of invading cells was counted under an optical microscope.\nThe results were evaluated based on percent cell invasion (%: Invasion) and percent inhibition (%: Inhibition). The percent cell invasion was obtained by converting the number of invading cells in the presence of each test compound into a percentage, taking the number of invading cells in the control test, in which DMSO was added alone, as 100%; and the percent inhibition was obtained by deducting the percent cell invasion from 100."}, "[2]": {"system": "mouse lung carcinoma cell line (3LL)", "experiment": "Tumor growth of subcutaneously transplanted mouse lung carcinoma cells", "type": "in vivo, C57BL/6 mice", "details": "3LL s.c. in mice, 0.25 mg/300 μL, day 26 to day 29", "procedure": "The mouse lung carcinoma cell line (3LL) was suspended in 200 μL of PBS(−), and transplanted (5×10^5 cells per mouse) into the dorsal subcutaneous region of C57BL/6 mice (6 weeks old). To a 6:1:1 mixture of PBS/Cremophor EL/ethanol, RT-22 as a representative of the compounds of the present invention was added to a concentration of 0.25 mg/300 μL, and the resulting mixture was loaded into an SMP-300 micro infusion pump (iPRECIO), which was subcutaneously implanted on the previous day of the transplantation, to perform continuous intravenous administration (n=5 mice). The control group was only administered with an equivalent volume of a solvent (a 6:1:1 mixture of PBS/Cremophor EL/ethanol) (n=6 mice). The transverse and longitudinal diameters of the tumor mass were measured over time for a period of 4 weeks from the start of administration, and the tumor volume (V) was calculated according to the formula: V=π/6x√((transverse diameter×longitudinal diameter)^3)."}}}
{"smiles": "O=C(Cn1cc(S(=O)(=O)N2CCCC2)ccc1=O)c1ccc(-c2cccc(C(F)(F)F)c2)cc1", "note": "[TBOPP, 1-(2-oxo-2-(3′-(trifluoromethyl)-[1,1′-biphenyl]-4-yl)ethyl)-5-(pyrrolidin-1-ylsulfonyl)pyridin-2(1H)-one, reference compound]", "values": [{"measurement": "DOCK1-selective inhibitory effect (DOCK1/DOCK2 selectivity)", "setting": "DOCK1 (DHR-2 domain); IC50 for DOCK2 divided by IC50 for DOCK1", "value": 2.6}, {"measurement": "IC50", "setting": "DOCK1 (DHR-2 domain); in vitro GEF assay, Bodipy-FL-GTP, DMSO control as 100%, read-out: inhibitory effect (IC50 value) on Rac activation by DOCK1 (DHR-2 domain)", "value": 8.4, "unit": "µM"}, {"measurement": "percent cell invasion inhibition", "setting": "[1]", "value": 95, "unit": "%"}, {"measurement": "tumor size reduced by, compared to the control group", "setting": "[2]", "value": "21-24%"}]}
